From US20210316003A1 (Immunomedics, Inc., priority 2020, published 2021)
Where “and” joins values, the source holds several entries; their conditions need not be identical. Equal values may be shown once. Entries after “also recorded” stand apart in the source; their conditions may differ.

What was measured:
patients with mSCLC [1] = test: Phase I/II trial (NCT01631552), mSCLC: efficacy by RECIST 1.1; type: in vivo, human
Description: Patients ≥18 years of age with mSCLC who had relapsed or were refractory to at least one prior standard line of therapy for stage IV metastatic disease, and with measurable tumors by CT, were enrolled. […] Previous therapy had to be completed at least 4 weeks before enrollment.
The primary endpoint was the proportion of patients with a confirmed objective response, assessed approximately every 8 weeks until disease progression, by each institution's radiology group or a contracted local radiology service. Objective responses were assessed by Response Evaluation Criteria in Solid Tumors, version 1.1 (RECIST 1.1) (Eisenhauer et al., 2009, Eur J Cancer 45:228-47). Partial (PR) or complete responses (CR) required confirmation within 4 to 6 weeks after the initial response. Clinical benefit rate (CBR) is defined as those patients with an objective response plus stable disease (SD) ≥4 months. Survival was monitored every 3 months until death or withdrawal of consent.
The protocol provided that objective response rates (ORR) were determined for patients who received ≥2 doses (1 cycle) and had their initial 8-week CT assessment. Duration of response is defined in accordance to RECIST 1.1 criteria, with those having an objective response marked from time of the first evidence of response until progression, while stable disease duration is marked from the start of treatment until progression. PFS and OS were defined from the start of treatment until an objective assessment of progression was determined (PFS) or death (OS). Duration of response, PFS, and OS were estimated by Kaplan-Meier methods, with 95% confidence intervals (CI), using MedCalc Statistical Software, version 16.4.3 (Ostend, Belgium).

[2] = test system: patients with metastatic TNBC; details: second line or later (Bardia et al., 2019); cited from earlier work
patients with mSCLC [3] = details: 53 mSCLC patients (Gray et al., 2017); cited from earlier work
[4] = test system: patients with metastatic TNBC; test: Phase I/II trial (NCT01631552), metastatic TNBC: efficacy by RECIST 1.1; type: in vivo, human
Description: (§1) Patients with relapsed/refractory TNBC who had previously failed at at least one prior line of therapy were enrolled in a single-arm, multicenter trial (Bardia et al., 2019, N Engl J Med 380:741-51). The present study reports on 108 patients who had failed at least two prior lines of therapy (median three prior therapies) (Bardia et al., 2019, N Engl J Med 380:741-51). […] For severe treatment-related adverse events, a 25% dose reduction was allowed after the first occurrence, 50% after the second and discontinuation after the third. Of the 108 patients, 107 were female and 1 was male, with a median age of 55. Prior therapies included treatment with taxanes (98%), anthracyclines (86%), platinum agents (69%), gemcitabine (55%), eribulin (45%) and checkpoint inhibitors (17%). Tumor staging was performed by computed tomography (CT) and MRI at baseline, followed up at 8 week intervals from the start of treatment until disease progression.

patients with mSCLC [5] = test: Antibody responses to sacituzumab govitecan, the IgG antibody and SN-38 in serum (ELISA), mSCLC; type: in vivo, human; details: treatment up to 22 months, up to 63 doses
Procedure: Positivity required at least 10% of the tumor cells to be stained, with an intensity scored as 1+(weak), 2+(moderate), and 3+(strong). […] Assay sensitivity is 50 ng/mL for the ADC and the IgG, and 170 ng/mL for anti-SN-38 antibody.

[6] = Serum pharmacokinetics (ELISA for IgG and intact conjugate, HPLC for SN-38); type: in vivo, human; details: patients
Procedure: Two ELISA methods were used to measure the clearance of the IgG (capture with anti-hRS7 idiotype antibody) and the intact conjugate (capture with anti-SN-38 IgG/probe with anti-hRS7 idiotype antibody). SN-38 was measured by HPLC.

patients with mSCLC [7] = test: Phase I/II trial (NCT01631552), mSCLC: safety and tolerability; details: N = 53
Procedure: Doses of 8 or 10 mg/kg were given on days 1 and 8 of a 21-day cycle, with contingencies to delay (maximum of 2 weeks). Toxicities were managed by supportive hematopoietic growth-factor therapy for blood cell reduction, dose delays and/or modification as specified in the protocol (e.g., 25% of prior dose), or by standard medical practice. Treatment was continued until disease progression, initiation of alternative anticancer therapy, unacceptable toxicity, or withdrawal of consent.
Safety evaluations were conducted during scheduled visits or more frequently if warranted.
Statistical Analyses—The data included in the analyses were derived from patients enrolled from November 2013 to June 2016, with follow-up through Jan. […] The frequency and severity of adverse events (AEs) were defined by MedDRA Preferred Term and System Organ Class (SOC) version 10, with severity assessed by NCI-CTCAE v4.03.

[8] = test system: patients with metastatic TNBC; test: Phase I/II trial (NCT01631552), metastatic TNBC: adverse events; type: in vivo, human; details: N = 108
Description: as §1

[9] = In vivo animal studies: release of SN-38 from the conjugate
Description: Plasma CEA and CA19-9 correlated with responses.

[10] = SG as ≥3 line, no prior topotecan/irinotecan (N = 9)
[11] = SG as ≥3 line, prior topotecan/irinotecan (N = 15)
[12] = prior immune checkpoint inhibitor

For sacituzumab govitecan, the “Duration of SD in ten patients with SD ≥4 months, Kaplan-Meier-derived median” value (patients with mSCLC [1]) was 5.6 months, the “Median OS for the seven confirmed PR patients” value (patients with mSCLC [1]) was 9.2 months and the “Median OS for the ten patients with SD ≥4 months” value (patients with mSCLC [1]) was 8.3 months. For the same substance, the “Confirmed PR” value (patients with mSCLC [1]; 8 mg/kg starting dose, thirteen patients) was 8%, the “Confirmed PR” value (patients with mSCLC [1]; 10 mg/kg starting dose (N = 30)) was 20% and the “CBR (clinical benefit rate)” value (patients with mSCLC [1]; 10 mg/kg starting dose, 14/30) was 47%. For the same substance, the “Patients with a reduction of tumor size from baseline” value (patients with mSCLC [1]; 21 of 43 CT-assessable patients) was 49%, the “Stable disease (SD), including unconfirmed PR” value (patients with mSCLC [1]; 21 of 43 assessable patients) was 49% and the “PD, %” value (patients with mSCLC [1]; 43 with response assessment) was “(35%)”. The “Duration of confirmed objective response, median” value (patients with mSCLC [1]; Kaplan-Meier) was 5.7 months, the “Clinical benefit rate (PR + SD ≥ 4 months), %” value (patients with mSCLC [1]; SG as second line (N = 19)) was “(37%)” and the “OS, median” value (patients with mSCLC [1]; SG as second line (N = 19)) was 8.1 months. The “PFS, median” value (patients with mSCLC [1]; SG as second line (N = 19)) was 3.6 months, the “Clinical benefit rate (PR + SD ≥ 4 months), %” value (patients with mSCLC [1]; SG as ≥3 line (N = 24)) was “(38%)” and the “OS, median” value (patients with mSCLC [1]; SG as ≥3 line (N = 24)) was 7.0 months. For the same substance, the “PFS, median” value (patients with mSCLC [1]; SG as ≥3 line (N = 24)) was 3.7 months, the “Clinical benefit rate (PR + SD ≥ 4 months), %” value (patients with mSCLC [1]; [10]) was “(33%)” and the “OS, median” value (patients with mSCLC [1]; [10]) was 5.5 months. For the same substance, the “PFS, median” value (patients with mSCLC [1]; [10]) was 3.7 months, the “Clinical benefit rate (PR + SD ≥ 4 months), %” value (patients with mSCLC [1]; [11]) was “(40%)” and the “OS, median” value (patients with mSCLC [1]; [11]) was 8.8 months. The “PFS, median” value (patients with mSCLC [1]; [11]) was 3.8 months and 3.6 months, the “Overall survival, median” value (patients with mSCLC [1]; intention-to-treat N = 53) was 7.0 months and the “Progression-free survival, median” value (patients with mSCLC [1]; intention-to-treat N = 53) was 3.6 months. For the same substance, the “Tumor shrinkage (SD lasting 8.7 months), single patient” value (patients with mSCLC [1]; [12]) was 17%, the “Tumor shrinkage on first assessment (unconfirmed PR), single patient” value (patients with mSCLC [1]; [12]) was 54% and the “Clinical benefit rate (PR + SD ≥ 4 months), %” value (patients with mSCLC [1]; resistant (N = 19) to 1st line) was “(26%)”. For the same substance, the “OS, median” value (patients with mSCLC [1]; resistant (N = 19) to 1st line) was 6.2 months, the “PFS, median” value (patients with mSCLC [1]; resistant (N = 19) to 1st line) was 3.6 months and the “Confirmed PR” value (patients with mSCLC [1]; resistant to first-line platinum, nineteen patients) was 16%. For the same substance, the PR (patients with mSCLC [1]; second-line setting, 3/19) was 16%, the “Clinical benefit rate (PR + SD ≥ 4 months), %” value (patients with mSCLC [1]; sensitive (N = 24) to 1st line) was “(50%)” and the “OS, median” value (patients with mSCLC [1]; sensitive (N = 24) to 1st line) was 8.3 months. The “PFS, median” value (patients with mSCLC [1]; sensitive (N = 24) to 1st line) was 3.8 months, the “Confirmed PR” value (patients with mSCLC [1]; sensitive to first-line platinum, 24 patients) was 17% and the “Median time to response” value (patients with mSCLC [1]; seven confirmed PR) was 2.0 months. The “Median PFS for the confirmed PR group” value (patients with mSCLC [1]; seven patients) was 7.9 months, the “Confirmed PR” value (patients with mSCLC [1]; third or higher line (N = 24)) was 16% and the “Median progression-free survival (PFS)” value [2] was 5.5 months. For the same substance, the “Overall survival (OS)” value [2] was 13.0 months, the Response rate [2] was 33.3% and the “Median OS” value (patients with mSCLC [3]) was 7.5 months. For the same substance, the “Median PFS” value (patients with mSCLC [3]) was 3.7 months, the Median response duration (patients with mSCLC [3]) was 5.7 months and the ORR (patients with mSCLC [3]) was 14%. The “Patients with tumor shrinkage from baseline” value (patients with mSCLC [3]) was “Sixty”, the “Response rate among patients who had failed previous checkpoint inhibitor therapy” value [4] was 44% and the “Complete responses (CR)” value ([4]; 10 mg/kg, N = 108) was 2.8%. For the same substance, the Median overall survival ([4]; 10 mg/kg, N = 108) was 13.0 months, the Median progression-free survival ([4]; 10 mg/kg, N = 108) was 5.5 months and the “Estimated probability that a patient would exhibit a response at 6 months” value ([4]; 36 responders) was 59.7%. The “Estimated probability that a patient would exhibit a response at 12 months” value ([4]; 36 responders) was 27.0%, the “Median duration of response” value ([4]; 36 responders) was 7.7 months and the “Median time to response” value ([4]; 36 responders) was 2.0 months. For the same substance, the “Patients with long-term responses of more than 12 months” value ([4]; at data cutoff) was 6, the “Response rate (CR+PR)” value ([4]; ≥2 prior lines, 10 mg/kg days 1 and 8 of 21 day cycle, N = 108) was 33.3% and the “Immunogenicity: antibodies to sacituzumab govitecan, the hRS7 antibody, or SN-38” value (patients with mSCLC [5]) was “not immunogenic; also recorded: No neutralizing antibodies”. The “Clearance of intact conjugate compared with the IgG” value ([6]; ELISA) was “cleared more quickly than the IgG”, the “Time for the conjugate to clear from the serum” value ([6]; serum) was no more than 3 days and the “SN-38 in the serum bound to the IgG (non-glucuronidated form)” value ([6]; serum, HPLC (Unbound and TOTAL)) was greater than 95%. For the same substance, the Treatment-related deaths (patients with mSCLC [7]) was “No treatment-related deaths were observed”, the “Anemia, % of patients” value [8] was 50% and the “Anemia, grade 3” value [8] was 11%. The “Decreased white blood cell count, grade 4” value [8] was 3%, the “Diarrhea, % of patients” value [8] was 62% and the “Diarrhea, grade 3” value [8] was 8%. For the same substance, the “Fatigue, % of patients” value [8] was 55%, the “Fatigue, grade 3” value [8] was 8% and the “Hyperglycemia, grade 4” value [8] was 1%. For the same substance, the “Nausea, % of patients” value [8] was 67%, the “Nausea, grade 3” value [8] was 6% and the “Neutropenia, % of patients” value [8] was 64%. For the same substance, the “Neutropenia, grade 3” value [8] was 26%, the “Neutropenia, grade 4” value [8] was 16% and the “Vomiting, % of patients” value [8] was 49%. For the same substance, the “Vomiting, grade 3” value [8] was 6% and the “SN-38 released from the conjugate daily” value [9] was 50%.
